Measurements taken from patent publication US20180148418A1, “AMIDO-SUBSTITUTED CYCLOHEXANE DERIVATIVES” (Bayer Pharma Aktiengesellschaft, priority 2015, published 2018).
Where a name gives a salt, the structure may show the parent alone.

Tests used:
TNKS2 = biological target: T1, TNKS2 (Homo sapiens, UniProt Q9H2K2); experiment: TNKS2 Assay B (auto-parsylation, [3H]-NAD+ SPA); assay type: biochemical; conditions: 6 nM TNKS2, auto-parsylation, over night at room temperature
T1 construct: purchased BPS Bioscience, San Diego, USA 80572 (TNKS2 Histone Ribosylation Assay Kit)
T1 sequence (Q9H2K2 1-1166): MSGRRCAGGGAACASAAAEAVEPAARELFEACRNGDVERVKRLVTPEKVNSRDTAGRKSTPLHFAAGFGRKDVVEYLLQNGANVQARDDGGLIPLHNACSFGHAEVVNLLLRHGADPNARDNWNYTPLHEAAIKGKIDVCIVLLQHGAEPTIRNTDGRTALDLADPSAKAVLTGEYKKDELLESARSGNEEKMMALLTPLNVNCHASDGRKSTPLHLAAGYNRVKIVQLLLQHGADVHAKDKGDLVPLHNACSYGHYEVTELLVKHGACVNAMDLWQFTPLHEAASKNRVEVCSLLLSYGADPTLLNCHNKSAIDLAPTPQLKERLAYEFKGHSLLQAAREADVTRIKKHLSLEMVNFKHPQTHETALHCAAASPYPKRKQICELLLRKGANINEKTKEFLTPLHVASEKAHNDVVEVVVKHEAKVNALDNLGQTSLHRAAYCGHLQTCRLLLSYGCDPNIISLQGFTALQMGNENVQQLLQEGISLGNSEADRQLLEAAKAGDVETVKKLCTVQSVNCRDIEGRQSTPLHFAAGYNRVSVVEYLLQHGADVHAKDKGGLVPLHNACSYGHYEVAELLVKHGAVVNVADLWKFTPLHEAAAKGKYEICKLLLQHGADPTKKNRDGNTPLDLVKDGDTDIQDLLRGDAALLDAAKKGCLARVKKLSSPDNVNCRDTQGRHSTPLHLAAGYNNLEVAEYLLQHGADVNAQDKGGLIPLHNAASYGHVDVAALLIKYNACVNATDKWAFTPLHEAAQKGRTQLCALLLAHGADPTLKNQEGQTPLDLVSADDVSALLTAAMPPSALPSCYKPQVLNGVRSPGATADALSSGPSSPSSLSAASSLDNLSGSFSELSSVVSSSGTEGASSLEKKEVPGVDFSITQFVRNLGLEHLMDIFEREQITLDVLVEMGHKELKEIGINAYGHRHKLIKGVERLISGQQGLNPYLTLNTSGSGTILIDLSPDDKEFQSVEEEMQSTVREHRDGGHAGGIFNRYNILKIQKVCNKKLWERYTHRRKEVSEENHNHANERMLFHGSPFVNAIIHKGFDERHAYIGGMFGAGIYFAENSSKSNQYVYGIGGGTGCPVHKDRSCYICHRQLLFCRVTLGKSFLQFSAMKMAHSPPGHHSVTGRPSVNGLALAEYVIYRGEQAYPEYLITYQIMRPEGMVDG

[1] = test system: HEK293 cells cotransfected with the FOP control vector; experiment: HEK293 FOP assay (control reporter with non-functional TCF elements); assay type: cell-based; conditions: Homo sapiens, 16 hours
How it was run: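 Compound series from 50 μM down to 15 nM, prediluted in DMSO then 50-fold into CAFTY buffer (pH 7.4, 2 mM Ca2+, 0.01% BSA), tested alongside TOP cells on a Geneticin-selected HEK293 FOP line whose TCF elements are replaced by a random sequence; recombinant human Wnt-3a applied at 2500-5 ng/ml.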

Row | Compound | IC50 (TNKS2) [nM] | IC50 [1] [nM]
1 | CNC(=O)c1nc[nH]c1C(=O)N[C@H]1CC[C@H](C(=O)N(C)c2ccccc2C)CC1 [Example 203, N^4-methyl-N^5-{trans-4-[methyl(2-methylphenyl)carbamoyl]cyclohexyl}-1H-imidazole-4,5-dicarboxamide] | 480 | ≥ 50000
2 | Cc1cnc2c(C(=O)N[C@H]3CC[C@@]4(CCN(c5ccc(F)cc5)C4=O)CC3)cnn2c1 [Example 210, N-[(trans)-2-(4-fluorophenyl)-1-oxo-2-azaspiro[4.5]dec-8-yl]-6-methylpyrazolo[1,5-a]pyrimidine-3-carboxamide] | 92 | 25000
3 | O=C(NCC(F)(F)F)c1nc[nH]c1C(=O)N[C@H]1CC[C@H](C(=O)Nc2ccc(F)cc2Cl)CC1 [Example 21, N^5-{trans-4-[(2-chloro-4-fluorophenyl)carbamoyl]cyclohexyl}-N^4-(2,2,2-trifluoroethyl)-1H-imidazole-4,5-dicarboxamide] | 83 | ≥ 50000
4 | CNC(=O)c1nc[nH]c1C(=O)N[C@H]1CC[C@H](C(=O)Nc2cccnc2Cl)CC1 [Example 10, N^5-{trans-4-[(2-chloropyridin-3-yl)carbamoyl]cyclohexyl}-N^4-methyl-1H-imidazole-4,5-dicarboxamide] | 240 | ≥ 50000
5 | Cc1nn2cccnc2c1C(=O)N[C@H]1CC[C@@]2(CCN(c3ccc(F)cc3Cl)C2=O)CC1 [Example 216, N-[(trans)-2-(2-chloro-4-fluorophenyl)-1-oxo-2-azaspiro[4.5]dec-8-yl]-2-methylpyrazolo[1,5-a]pyrimidine-3-carboxamide] | 340 | ≥ 50000
6 | CNC(=O)c1nc[nH]c1C(=O)N[C@H]1CC[C@H](C(=O)Nc2ccncc2Cl)CC1 [Example 11, N^5-{trans-4-[(3-chloropyridin-4-yl)carbamoyl]cyclohexyl}-N^4-methyl-1H-imidazole-4,5-dicarboxamide] | 210 | ≥ 50000

The next compounds have a lower IC50 (TNKS2) than those just listed; values first:

Row | IC50 (TNKS2) [nM] | Compound | IC50 [1] [nM]
7 | 6.2 | CN1CC2(CCN(C(=O)c3nc[nH]c3C(=O)N[C@H]3CC[C@@]4(CCN(c5ccc(F)cc5Cl)C4=O)CC3)C2)C1 [Example 184, N-[(trans)-2-(2-chloro-4-fluorophenyl)-1-oxo-2-azaspiro[4.5]dec-8-yl]-4-[(2-methyl-2,6-diazaspiro[3.4]oct-6-yl)carbonyl]-1H-imidazole-5-carboxamide] | ≥ 50000
8 | 5.7 | Cc1cc(C)n2ncc(C(=O)N[C@H]3CC[C@@]4(CCN(c5ccccc5Cl)C4=O)CC3)c2n1 [Example 257, N-[(trans)-2-(2-chlorophenyl)-1-oxo-2-azaspiro[4.5]dec-8-yl]-5,7-dimethylpyrazolo[1,5-a]pyrimidine-3-carboxamide] | ≥ 50000
9 | 3.3 | O=C(N[C@H]1CC[C@@]2(CCN(c3ccc(F)cc3Cl)C2=O)CC1)c1cnn2ccc(N3CCNCC3)nc12 [Example 226, N-[(trans)-2-(2-chloro-4-fluorophenyl)-1-oxo-2-azaspiro[4.5]dec-8-yl]-5-(piperazin-1-yl)pyrazolo[1,5-a]pyrimidine-3-carboxamide hydrochloric acid salt] | ≥ 500
10 | 6.8 | Cc1cc(C)n2ncc(C(=O)N[C@H]3CC[C@@]4(CCN(c5cc(C)c(F)cc5Cl)C4=O)CC3)c2n1 [Example 266, N-[(trans)-2-(2-chloro-4-fluoro-5-methylphenyl)-1-oxo-2-azaspiro[4.5]dec-8-yl]-5,7-dimethylpyrazolo[1,5-a]pyrimidine-3-carboxamide] | ≥ 50000
11 | 6.3 | COCCNC(=O)c1nc[nH]c1C(=O)N[C@H]1CC[C@@]2(CCN(c3ccccc3Cl)C2=O)CC1 [Example 259, N^5-[(trans)-2-(2-chlorophenyl)-1-oxo-2-azaspiro[4.5]dec-8-yl]-N^4-(2-methoxyethyl)-1H-imidazole-4,5-dicarboxamide] | ≥ 50000
